Data from PubChem BioAssay (NCI).
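These data come from cells grown in 96-well plates and exposed to compound for 48 hours at five concentrations. Here, GI50 denotes the concentration required for 50% inhibition of growth. Definition used: TGI = concentration required for complete inhibition of growth.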 Where a SMILES comes first, the peptide text is derived from it. [ ]: non-standard residue; d: D form. pGlu = O=C1CC[CH](C(=O)O)N1

Tests used:
Assay in all cases: NCI anticancer screen, dose series, 48 h
IGROV1 ovarian = system: IGROV1 ovarian
CAKI-1 renal = system: CAKI-1 renal
DU-145 prostate = system: DU-145 prostate
ACHN renal = system: ACHN renal
TK-10 renal = system: TK-10 renal
A549 NSCLC = system: A549 NSCLC
NCI/ADR-RES ovarian = system: NCI/ADR-RES ovarian
SNB-75 CNS = system: SNB-75 CNS
OVCAR-4 ovarian = system: OVCAR-4 ovarian
SR leukemia = system: SR leukemia
KM12 colon = system: KM12 colon

Row | SMILES | TGI (IGROV1 ovarian) | TGI (CAKI-1 renal) | TGI (DU-145 prostate) | TGI (ACHN renal) | TGI (TK-10 renal) | TGI (A549 NSCLC) | TGI (NCI/ADR-RES ovarian) | TGI (SNB-75 CNS) | TGI (OVCAR-4 ovarian) | TGI (SR leukemia) | TGI (KM12 colon) | GI50 (IGROV1 ovarian) | GI50 (CAKI-1 renal) | GI50 (DU-145 prostate) | GI50 (ACHN renal) | GI50 (TK-10 renal) | GI50 (A549 NSCLC) | GI50 (OVCAR-4 ovarian) | GI50 (SR leukemia) | GI50 (KM12 colon)
1 | ClCc1nc2ccccc2[nH]1 | > 100 µM | > 100 µM | > 100 µM | > 100 µM | > 100 µM | > 100 µM | > 100 µM | > 100 µM | > 100 µM | > 100 µM | > 100 µM | – | – | – | – | – | – | – | – | –
2 | CCn1c(SCC(=O)N/N=C2\SCC(=O)N2c2ccc(C)cc2)nc2ccccc2c1=O | 43.2 µM | 33.2 µM | 75 µM | 34.2 µM | 31 µM | 43.3 µM | 49.7 µM | 36.6 µM | 48.2 µM | 47.2 µM | 47.3 µM | – | – | – | – | – | – | – | – | –
3 | CC1C(C)(C)C23CC12C1(OCCO1)C3Br (configuration not stated) | > 100 µM | > 100 µM | > 100 µM | > 100 µM | > 100 µM | > 100 µM | > 100 µM | > 100 µM | > 100 µM | > 100 µM | > 100 µM | – | – | – | – | – | – | – | – | –
4 | O=c1onc2n1-c1ccc(Cl)cc1C(=S)N1CSCC21 (configuration not stated) | > 100 µM | > 100 µM | > 100 µM | > 100 µM | > 100 µM | > 100 µM | 36.4 µM | 91.9 µM | > 100 µM | 48.1 µM | 59.6 µM | – | – | – | – | – | – | – | – | –
5 | FC1(F)ON2CCc3ccccc3C2[C@H]1c1ccccc1 (some centres not stated) | > 100 µM | > 100 µM | > 100 µM | > 100 µM | > 100 µM | > 100 µM | > 100 µM | 70.8 µM | > 100 µM | > 100 µM | > 100 µM | > 100 µM | > 100 µM | > 100 µM | > 100 µM | > 100 µM | > 100 µM | > 100 µM | > 100 µM | > 100 µM
6 | NS(=O)(=O)c1ccc(NC(=O)N/N=C/c2ccccc2[N+](=O)[O-])cc1 | > 100 µM | > 100 µM | > 100 µM | > 100 µM | > 100 µM | > 100 µM | > 100 µM | > 100 µM | > 100 µM | > 100 µM | > 100 µM | – | – | – | – | – | – | – | – | –
7 | C=C1C2CCC3C4(C)CCCC(C)(C(=O)O)C4CCC3(C2)C1OC(=O)/C(C)=C/C (configuration not stated) | > 100 µM | > 100 µM | > 100 µM | > 100 µM | > 100 µM | > 100 µM | 53.6 µM | > 100 µM | > 100 µM | 9.55 µM | 35.1 µM | – | – | – | – | – | – | – | – | –
8 | COC(=O)C1=C(C)NC(=O)N2[C@@H](CCOCc3ccccc3)CC[C@@H]12 | > 50 µM | > 50 µM | > 50 µM | > 50 µM | > 50 µM | > 50 µM | > 50 µM | > 50 µM | > 50 µM | > 50 µM | > 50 µM | – | – | – | – | – | – | – | – | –
9 | COC(=O)C(CNC(=O)/C=C/c1ccc(OC)c(OC)c1)NC(=O)/C=C/c1ccc(OC)c(OC)c1 (configuration not stated) | > 100 µM | > 100 µM | > 100 µM | > 100 µM | > 100 µM | > 100 µM | > 100 µM | > 100 µM | > 100 µM | > 100 µM | > 100 µM | – | – | – | – | – | – | – | – | –
10 | CC(NC(=O)C1CCC(=O)N1)C(=O)N1CCCC1C(N)=O (stereo not drawn) ([pGlu]-Ala-Pro-NH2; configuration not given here) | > 100 µM | > 100 µM | > 100 µM | > 100 µM | > 100 µM | > 100 µM | > 100 µM | > 100 µM | > 100 µM | > 100 µM | > 100 µM | – | – | – | – | – | – | – | – | –
11 | CC(NC1=NCCO1)c1ccccc1Cl (configuration not stated) | > 100 µM | > 100 µM | > 100 µM | > 100 µM | > 100 µM | > 100 µM | > 100 µM | > 100 µM | > 100 µM | > 100 µM | > 100 µM | – | – | – | – | – | – | – | – | –
12 | C#C[C@]1(O)CC[C@H]2[C@@H]3CCC4=C/C(=N\OCCN5CCCCC5)CC[C@]4(C)[C@H]3CC[C@@]21C | 19.1 µM | 20.5 µM | 23.1 µM | 22.5 µM | 22.3 µM | 22.7 µM | 15.4 µM | 17.1 µM | 40 µM | 5.17 µM | 12.3 µM | – | – | – | – | – | – | – | – | –
13 | COc1ccc(S(=O)(=O)Nc2ccc(-c3csc(N4C(=O)/C(=C/c5ccccc5[N+](=O)[O-])N=C4c4ccccc4)n3)cc2)cc1Cl | > 100 µM | > 100 µM | > 100 µM | > 100 µM | > 100 µM | > 100 µM | > 100 µM | > 100 µM | > 100 µM | > 100 µM | > 100 µM | – | – | – | – | – | – | – | – | –
14 | CC(C)(C)C1=C(Br)C(F)(C(C)(C)C)OP1(=O)c1ccccc1 (configuration not stated) | 29.7 µM | 25.8 µM | 32 µM | 30 µM | 33.1 µM | 36.3 µM | 30.8 µM | 30.9 µM | 23 µM | 31.4 µM | 33.7 µM | – | – | – | – | – | – | – | – | –
15 | CCOC(=O)c1c(O)cn2c1[nH]c1cccc3cccc2c31 | > 100 µM | > 100 µM | > 100 µM | > 100 µM | > 100 µM | > 100 µM | > 100 µM | > 100 µM | > 100 µM | > 100 µM | > 100 µM | – | – | – | – | – | – | – | – | –
16 | Nc1ncnc2c1ncn2[C@H]1C=C[C@@H](NO)C1 | > 100 µM | > 100 µM | > 100 µM | > 100 µM | > 100 µM | > 100 µM | > 100 µM | > 100 µM | > 100 µM | > 100 µM | > 100 µM | – | – | – | – | – | – | – | – | –
17 | COc1ccc(/C=N\N(C)Cc2cccc3ccsc23)cc1 | > 100 µM | > 100 µM | > 100 µM | > 100 µM | > 100 µM | > 100 µM | > 100 µM | > 100 µM | > 100 µM | > 100 µM | > 100 µM | – | – | – | – | – | – | – | – | –
18 | Cc1cc(N(CCC#N)CCC#N)ccc1/C(N=Nc1ccc([N+](=O)[O-])cc1)=N\NC(=O)c1cc(Cl)ccc1O | > 100 µM | > 100 µM | > 100 µM | > 100 µM | > 100 µM | > 100 µM | > 100 µM | > 100 µM | > 100 µM | > 100 µM | > 100 µM | – | – | – | – | – | – | – | – | –
